Experimental data reported in US6358966B2, “Treatment of depression” (H. Lundbeck A/S, priority 1998, dated 2002).

How the values were obtained:
[1] = system: chronic mild stress induced anhedonia in rats; test: chronic mild stress induced anhedonia in rats (sucrose consumption); format: in vivo, Male Wistar rats
Description: The model of chronic mild stress induced anhedonia in rats. […] This model is based on the observation that chronic mild stress causes a gradual decrease in sensitivity to rewards, for example consumption of sucrose, and that this decrease is dose-dependently reversed by chronic treatment with antidepressants. The method has previously been described and more information with respect to the test appears from Willner, Paul, Psycopharmacology, 1997, 134, 319-329. Male Wistar rats were trained to consume a 1% sucrose solution by nine 1-hour baseline tests in which sucrose was presented in the home cage following 14 h food and water deprivation. One group of animals was subjected to a chronic mild stress procedure for a period of 9 consecutive weeks. Each week of the stress regime consisted of two periods of food and water deprivation, two periods of 45-degree cage tilt, two periods of intermittent illumination (light on and off every 2 h), two periods of soiled cage (250 ml water saw dust bedding), two periods of paired housing, two periods of low stroboscobic illumination (150 flashes/min) and two periods of no stress. All stress periods were of 12-14 hours duration and followed continuously, day and night. Control animals were housed in separate rooms with food and water freely available except for a 14-h period preceding each sucrose test, and they had no contact with stressed animals. Stressed animals as well as control animals were divided into matched subgroups, and for subsequent five weeks they received daily intraperitoneal injections (1 ml/kg body weight) of vehicle (minimum amount of propylene glycol and methane sulfonic acid (1:1) diluted with water) or test compound. Sucrose tests were carried out 24 hours following to last drug treatment.

[2] = system: black/white exploration test in rats; conditions: cited from earlier work
sigma2 = conditions: cited from earlier work
psychosis = conditions: cited from earlier work

## Fc1ccc(-n2cc(CCCCN3CCC4(CC3)OCc3ccccc34)c3ccccc32)cc1 [compound of the invention, 1′-[4-[1-(4-fluorophenyl)-1H-indole-3-yl]-1-butyl]-spiro[isobenzofuran-1(3H),4′-piperidine]]
[1]; non-stressed control rats, daily i.p. for five weeks
  consumption of sucrose in the control animals: did not significantly affect
[1]; stressed rats, 1.0 mg/kg daily i.p.
  sucrose intake in stressed animals versus initial scores: significantly increased from initial scores after three, four and five weeks
[1]; stressed rats, 1.0 mg/kg daily i.p. for five weeks
  reversal of chronic mild stress induced deficit in sucrose intake: able to reverse
[2]
  anxiolytic activity in the black/white exploration test: active over a large dose range
sigma2
  sigma ligand potency and selectivity: potent and selective sigma ligand, in particular a sigma2 ligand

## C[C@@H]1CN(CCCn2c3ccccc3c3ccccc32)C[C@H](C)N1 [rimcazole]
psychosis
  clinical effect in the treatment of psychosis: clinically shows effect in the treatment of psychosis
